Assays:
CXCR1 = target: T1, CXCR1 (Homo sapiens, UniProt P25024); experiment: CXCR1 SPA receptor binding assay
T1 construct: purchased Biosignal; host or cells: CHO cells overexpressing hCXCR1 (membranes)
T1 sequence (P25024 1-350): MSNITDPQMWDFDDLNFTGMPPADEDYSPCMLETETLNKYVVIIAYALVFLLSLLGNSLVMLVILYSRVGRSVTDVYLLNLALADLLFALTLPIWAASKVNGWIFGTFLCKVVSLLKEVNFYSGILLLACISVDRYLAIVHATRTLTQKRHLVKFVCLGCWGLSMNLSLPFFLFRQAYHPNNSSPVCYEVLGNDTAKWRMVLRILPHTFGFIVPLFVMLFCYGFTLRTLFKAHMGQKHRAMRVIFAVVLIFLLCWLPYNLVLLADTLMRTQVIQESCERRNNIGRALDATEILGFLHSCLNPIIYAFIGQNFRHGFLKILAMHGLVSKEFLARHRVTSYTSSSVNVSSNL
Method: For each well of a 96 well plate, a reaction mixture of 10 μg hCXCR1-CHO overexpressing membranes (Biosignal) and 200 μg/well WGA-SPA beads (Amersham) in 100 μl can be prepared in CXCR1 assay buffer (25 mM HEPES, pH 7.8, 2 mM CaCl2, 1 mM MgCl2, 125 mM NaCl, 0.1% BSA) (Sigma). A 0.4 nM stock of ligand, [125I]-IL-8 (NEN) can be prepared in the CXCR1 assay buffer. 20× stock solutions of test compounds can be prepared in DMSO (Sigma). A 6× stock solution of IL-8 (R&D) can be prepared in CXCR2 assay buffer. The above solutions can be added to a 96-well assay plate (PerkinElmer) as follows: 10 μl test compound or DMSO, 40 μl CXCR1 assay buffer or IL-8 stock, 100 μl of reaction mixture, 50 μl of ligand stock (Final [Ligand]=0.1 nM). The assay plates can be shaken for 5 minutes on plate shaker, then incubated for 8 hours before cpm/well can be determined in Microbeta Trilux counter (PerkinElmer). % Inhibition of Total binding-NSB (250 nM IL-8) can be determined for IC50 values.

CXCR2 = target: T2, CXCR2 (Homo sapiens, UniProt P25025); experiment: CXCR2 SPA receptor binding assay
T2 construct: purchased Biosignal; host or cells: CHO cells overexpressing hCXCR2 (membranes)
T2 sequence (P25025 1-360): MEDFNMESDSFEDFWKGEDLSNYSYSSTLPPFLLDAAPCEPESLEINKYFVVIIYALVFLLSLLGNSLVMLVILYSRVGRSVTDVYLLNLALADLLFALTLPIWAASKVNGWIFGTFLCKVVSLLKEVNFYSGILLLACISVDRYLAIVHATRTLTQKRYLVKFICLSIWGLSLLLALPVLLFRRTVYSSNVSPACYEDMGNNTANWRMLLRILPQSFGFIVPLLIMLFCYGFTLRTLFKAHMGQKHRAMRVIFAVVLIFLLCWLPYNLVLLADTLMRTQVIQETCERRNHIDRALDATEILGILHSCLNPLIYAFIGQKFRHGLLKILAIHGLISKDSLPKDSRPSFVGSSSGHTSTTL
Method: For each well of a 96 well plate, a reaction mixture of 4 μg hCXCR2-CHO overexpressing membranes (Biosignal) and 200 μg/well WGA-SPA beads (Amersham) in 100 μl can be prepared in CXCR2 assay buffer (25 mM HEPES, pH 7.4, 2 mM CaCl2, 1 mM MgCl2). A 0.4 nM stock of ligand, [125I]-IL-8 (NEN), can be prepared in the CXCR2 assay buffer. 20× stock solutions of test compounds can be prepared in DMSO (Sigma). A 6× stock solution of GRO-α (R&D) can be prepared in CXCR2 assay buffer. The above solutions can be added to a 96-well assay plate (PerkinElmer or Corning) as follows: 10 μl test compound or DMSO, 40 ul CXCR2 assay buffer or GRO-α stock, 100 μl of reaction mixture, 50 μl of ligand stock (Final [Ligand]=0.1 nM). When 40× stock solutions of test compounds in DMSO can be prepared, then the above protocol can be used except instead 5 μl test compound or DMSO and 45 μl CXCR2 assay buffer can be used. The assay plates can be shaken for 5 minutes on a plate shaker, then incubated for 2-8 hours before cpm/well can be determined in Microbeta Trilux counter (PerkinElmer). % Inhibition of total binding minus non-specific binding (250 nM Gro-α or 50 μM antagonist) can be determined and IC50 values can be calculated.

Ki (CXCR1): 4.22 µM | Ki (CXCR2): 196 nM
Structure (SMILES): CC[C@@H](Nc1nc2nonc2nc1Nc1cccc(C(=O)N(C)C)c1O)c1ccc(C)o1 [Compound 4]
